From the supplement of paper PMC11451515

Tested on: NOMO1
Assay: cell viability relative to DMSO control; higher = less cytotoxic
Conditions: 48 h
In short: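 Viability was expressed as a per-plate percentage of DMSO wells, with cell-free wells as background. Leukemia cells (NOMO1 or SEM at 500 cells/well, P12-Ichikawa at 1000 cells/well) were adapted for at least four passages in each medium and seeded in 1536-well plates (5 μl). Library compounds in DMSO were pin-dosed over an 11-point threefold series from 47 μM to 0.79 nM, and CellTiter-Glo One luminescence was read after 48 h at 37°C.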

[1] = HPLM + 10% dialyzed FBS, 0.000781 µM
[2] = HPLM + 10% dialyzed FBS, 0.00234 µM
[3] = HPLM + 10% dialyzed FBS, 0.00702 µM
[4] = HPLM + 10% dialyzed FBS, 0.0211 µM
[5] = HPLM + 10% dialyzed FBS, 0.0632 µM
[6] = HPLM + 10% dialyzed FBS, 0.19 µM
[7] = HPLM + 10% dialyzed FBS, 0.569 µM
[8] = HPLM + 10% dialyzed FBS, 1.71 µM
[9] = HPLM + 10% dialyzed FBS, 5.12 µM
[10] = HPLM + 10% dialyzed FBS, 15.4 µM
[11] = HPLM + 10% dialyzed FBS, 46.1 µM
[12] = RPMI 5 mM glucose + 10% FBS, 0.000781 µM
[13] = RPMI 5 mM glucose + 10% FBS, 0.00234 µM
[14] = RPMI 5 mM glucose + 10% FBS, 0.00702 µM
[15] = RPMI 5 mM glucose + 10% FBS, 0.0211 µM
[16] = RPMI 5 mM glucose + 10% FBS, 0.0632 µM
[17] = RPMI 5 mM glucose + 10% FBS, 0.19 µM
[18] = RPMI 5 mM glucose + 10% FBS, 0.569 µM
[19] = RPMI 5 mM glucose + 10% FBS, 1.71 µM
[20] = RPMI 5 mM glucose + 10% FBS, 5.12 µM
[21] = RPMI 5 mM glucose + 10% FBS, 15.4 µM
[22] = RPMI 5 mM glucose + 10% FBS, 46.1 µM
[23] = RPMI 5 mM glucose + 10% dialyzed FBS, 0.000781 µM
[24] = RPMI 5 mM glucose + 10% dialyzed FBS, 0.00234 µM
[25] = RPMI 5 mM glucose + 10% dialyzed FBS, 0.00702 µM
[26] = RPMI 5 mM glucose + 10% dialyzed FBS, 0.0211 µM
[27] = RPMI 5 mM glucose + 10% dialyzed FBS, 0.0632 µM
[28] = RPMI 5 mM glucose + 10% dialyzed FBS, 0.19 µM
[29] = RPMI 5 mM glucose + 10% dialyzed FBS, 0.569 µM
[30] = RPMI 5 mM glucose + 10% dialyzed FBS, 1.71 µM
[31] = RPMI 5 mM glucose + 10% dialyzed FBS, 5.12 µM
[32] = RPMI 5 mM glucose + 10% dialyzed FBS, 15.4 µM
[33] = RPMI 5 mM glucose + 10% dialyzed FBS, 46.1 µM

Row | Structure (SMILES) | cell viability [1] | cell viability [2] | cell viability [3] | cell viability [4] | cell viability [5] | cell viability [6] | cell viability [7] | cell viability [8] | cell viability [9] | cell viability [10] | cell viability [11] | cell viability [12] | cell viability [13] | cell viability [14] | cell viability [15] | cell viability [16] | cell viability [17] | cell viability [18] | cell viability [19] | cell viability [20] | cell viability [21] | cell viability [22] | cell viability [23] | cell viability [24] | cell viability [25] | cell viability [26] | cell viability [27] | cell viability [28] | cell viability [29] | cell viability [30] | cell viability [31] | cell viability [32] | cell viability [33]
1 | COC1=CC=C(C(=C1)OC(C)C)C/2=N/[C@@H]([C@@H](N2C(=O)N3CCNC(=O)C3)C4=CC=C(Cl)C=C4)C5=CC=C(Cl)C=C5 | 119% | 115% | 114% | 120% | 119% | 112% | 124% | 105% | 96.1% | 29.3% | 5.33% | 105% | 118% | 106% | 100% | 103% | 103% | 104% | 103% | 95.9% | 78.1% | 7.76% | 100% | 102% | 104% | 105% | 102% | 114% | 106% | 103% | 90.8% | 70.3% | 17.7%
2 | COc1c(C)c2c(c(O)c1C/C=C(\C)CCC(=O)O)C(=O)OC2 | 116% | 109% | 106% | 107% | 116% | 95.4% | 115% | 100% | 86.7% | 45.2% | 32.6% | 101% | 107% | 102% | 94.4% | 109% | 94.9% | 102% | 109% | 84.6% | 47.5% | 22.3% | 98.4% | 96.7% | 105% | 97.3% | 100% | 108% | 84.7% | 89.5% | 90.4% | 58% | 38.3%
3 | CC(C)(O)CC(=O)NCCn1ccc2ncnc(Nc3ccc(Oc4cccc(C(F)(F)F)c4)c(Cl)c3)c21 | 96.8% | 109% | 107% | 120% | 89.5% | 98.9% | 107% | 85.5% | 80.5% | 54.7% | 33.9% | 95.1% | 109% | 103% | 105% | 101% | 97.9% | 111% | 95.3% | 96.8% | 79% | 53.6% | 106% | 100% | 95.3% | 108% | 99.8% | 109% | 107% | 97.1% | 81.9% | 67.8% | 44.1%
4 | CC[C@@H]([C@H](C)O)n1ncn(-c2ccc(N3CCN(c4ccc(OCC5CO[C@@](Cn6cncn6)(c6ccc(F)cc6F)C5)cc4)CC3)cc2)c1=O (some centres undefined) | 109% | 106% | 91.5% | 112% | 106% | 98.2% | 109% | 107% | 82.4% | 94.8% | 84.9% | 101% | 97.3% | 93.3% | 97% | 83.5% | 91.4% | 87.3% | 87% | 87.5% | 82.3% | 78.1% | 95.1% | 90.3% | 92.6% | 81.3% | 93.6% | 83.4% | 92.1% | 90.1% | 90.4% | 87.1% | 78.2%
5 | C[C@@H](CN1CC(=O)NC(=O)C1)N1CC(=O)NC(=O)C1 | 112% | 125% | 121% | 117% | 113% | 55.7% | 32.8% | 22.3% | 33% | 8.92% | 13.7% | 106% | 113% | 125% | 101% | 113% | 89% | 55.9% | 15.4% | 17.5% | 8.63% | 12.9% | 102% | 111% | 99.9% | 114% | 109% | 83% | 44.7% | 18.8% | 21.5% | 17.2% | 19.8%
6 | O=C(CCCN1CCN(c2ccc(F)cc2)CC1)NC1c2ccccc2CSc2ccccc21 (centres undefined) |  |  |  |  |  |  |  |  |  |  |  | 135% | 109% | 108% | 125% | 126% | 117% | 112% | 117% | 74% | 103% | 71.1% | 121% | 120% | 125% | 114% | 118% | 112% | 113% | 106% | 99.9% | 90.8% | 58%
7 | CCc1ccc(/C=C2/SC(=S)NC2=O)cc1 | 70.3% | 79.1% | 88% | 86% | 74.5% | 74.2% | 79.2% | 79.7% | 94.3% | 51.3% | 92.2% | 75.7% | 83.5% | 81.8% | 81.9% | 87.2% | 83.8% | 88.1% | 76.3% | 93.4% | 59.9% | 75% | 78.2% | 71.1% | 83.2% | 81.4% | 87.5% | 73.4% | 84.3% | 82.1% | 85.3% | 48.6% | 86.3%
8 | COC(=O)C\1=C(C)\N\C(=C(/C1C2=CC=CC3=NON=C23)C(=O)OC(C)C)C (centres undefined) | 115% | 116% | 104% | 111% | 111% | 108% | 96.3% | 89.8% | 88.8% | 96.3% | 85.1% | 95.4% | 94.6% | 91.3% | 99.3% | 103% | 89.4% | 94.5% | 85.2% | 81.4% | 86.6% | 94.7% | 105% | 101% | 100% | 108% | 88.7% | 92.3% | 87.8% | 102% | 92.8% | 93.4% | 106%
9 | Cc1csc(-c2nnc(Nc3ccc(Oc4ncccc4-c4ccnc(N)n4)cc3)c3ccccc23)c1 | 106% | 101% | 113% | 79% | 95.3% | 89.3% | 99.5% | 86.7% | 72.6% | 76.3% | 84.1% | 99.9% | 111% | 97.5% | 53.2% | 45.9% | 52.6% | 75.1% | 81.6% | 65.9% | 67.3% | 74.1% | 105% | 103% | 89.8% | 60.3% | 62% | 59% | 72.6% | 77.9% | 72.5% | 84.1% | 80.5%
10 | Cc1cccc(Nc2ccncc2[S+](=O)([O-])NC(=O)NC(C)C)c1 | 105% | 103% | 100% | 85.6% | 112% | 105% | 103% | 87.3% | 80.9% | 89.3% | 56% | 95.6% | 89.6% | 96.4% | 88.9% | 83% | 84.8% | 89.4% | 89.1% | 79.2% | 82.3% | 72.4% | 89.1% | 91.4% | 81.1% | 94.1% | 93.6% | 92.6% | 85.5% | 89.3% | 83.5% | 81% | 65.8%
